Assay results published in patent US9944989B2, “Micrornas as new therapeutic targets for the prevention and/or treatment of retinopathy” (RUSH UNIVERSITY MEDICAL CENTER, priority 2010, dated 2018).

How the values were obtained:
NF-κB [1] = experiment: Thrombin-induced miR-146a/b expression (qRT-PCR) in HRECs, with or without Bay11-7082; assay type: cell-based, human
Excerpt: miR-146 is a NF-κB-responsive miRNA, and can be induced by IL-1R/TLR mediated NF-κB activation. GPCR-mediated NF-κB activation also induces the expression of miR-146.
Upregulation of miR-146a/b by thrombin treatment is a result of NF-κB activation.
(§1) Cell culture and treatment. Primary Human Retinal Endothelial Cells (HRECs) (Passage 3-6) and HEK293 cells were purchased from Applied Cell Biology Res Institute (Kirkland, Wash.) and American Type Culture Collection (ATCC), respectively. HRECs were maintained in EGM2-MV media with 5% of FBS (Lonza) in flasks coated with attachment factor (Invitrogen) or plates coated with fibronectin (Sigma). For thrombin treatment, HRECs were serum starved in EGM2-MV media with 1% FBS overnight, and then treated with thrombin (5 U/ml) (Sigma. Cat. T4393) for 5-8 hours, followed by RNA harvesting, leukocyte adhesion and other assays; for IL-1β treatment, after overnight serum starvation, HRECs was incubated with 10 ng/ml IL-1β (Sigma) for 4 hours. When NF-κB specific inhibitor Bay11-7082 was used, HRECs was incubated with Bay11-7082 (3 μM) (Sigma) for 30 minutes prior to treatment with either thrombin or IL-1β.
(§2) RNA preparation and quantitative RT-PCR. Total RNA was prepared using miRVana miRNA isolation kit (Ambion) (Kovacs et al., 2011). qRT-PCR of miRNAs was performed using TaqMan microRNA Assays (Applied Biosystems), with snRNA U6 as normalization control. qRT-PCR of mRNAs of was performed using QuantiTect Primer Assays and QuantiFast SYBR Green RT-PCR Kit (Qiagen), with 18s rRNA as normalization control. Two tailed t test was used to determine significance of differences.

NF-κB [2] = experiment: miR-146a expression (qRT-PCR) in rat RECs (TR-iBRB2) treated with IL-1β or TNFα, with or without Bay11-7082; assay type: cell-based; details: for miR-146a expression: rat RECs (TR-iBRB2), 10 ng/ml, four hours and 24 hours after treatment
Description: In diabetic retinas, hyperglycemia-induced increased production of ROS and proinflammatory cytokines work in concert to activate NF-κB in RECs. Both IL-1β and TNF-α are shown to activate NF-κB in RECs. Upregulation of miR-146a is a result of NF-κB activation. Rat RECs (the TR-iBRB2 cells) were treated with IL-1β (10 ng/ml) and TNF-α (10 ng/ml). […] The extent of upregulation of miR-146a was further increased from 4-hour to 24-hour treatments. […] It is noteworthy that there is a moderate, but significant increased expression of miR-146a by IL-1β in the presence of Bay11-7082, compared to non-treated negative controls.
Quantitative (q)RT-PCR. qRT-PCR analysis of miRNAs was performed using TaqMan microRNA Assays according to the manufacturer's protocol (Applied Biosystems). Approximately 8 ng of total RNA was used for each reaction. snRNA U6 was used for normalization control. qRT-PCR analysis on mRNAs of IRAK1, TRAF6, ICAM-1, and MCP-1 was performed using the QuantiTect Primer Assay with QuantiFast SYBR Green RT-PCR Kit (Qiagen, Valencia, Calif.) ˜10 ng total RNA was used in each reaction. 18S rRNA was amplified as normalization control. All data are expressed as mean±SEM. Student's t-test was used to determine significance (p<0.05).
(§3) Rat REC culture and treatment with proinflammatory factors. Rat RECs—the Transgenic-inner Blood-Retinal Barrier (Tr-iBRB) cells were kindly provided by Drs. Tetsuya Terasaki, Tohoku University, and Ken-ichi Hosoya, University of Toyama, Japan. The Tr-iBRB cells were derived from RECs of transgenic rats harboring the temperature-sensitive SV40 large T-antigen (tsA58Tg rats). At 33° C., they are immortalized and proliferate because of the expression of large T-antigen. At 37° C., they stop proliferation due to loss of large T-antigen and differentiate into authentic retinal ECs, which have spindle fiber shapes, with typical endothelial and REC-specific markers and endothelial properties and REC-specific functions. iTr-iBRB cells were expanded at 33° C. on collagen-coated (50 μg/ml) plates in complete EC culture medium (DMEM with 70 mg/L benzylpenicillin potassium, 100 mg/L streptomycin sulfate, 10% heat-inactivated FBS and endothelial-cell growth factor (ECGF) (1:100, Sigma). Glucose concentration in the medium was 5.5 mM. Approximately 100,000 cells/60 mm plate were grown in complete medium at 37° C. for 48 hours. Cells were serum starved in DMEM+0.2% FBS for 16 hours before treatment of IL-1β (10 ng/ml, Sigma), TNFα (10 ng/ml, Sigma), or NF-κB inhibitor, Bay11-7082 (3 μM. Calbiochem) for 4 or 24 hours. Subsequently, the cells were harvested for total RNA, protein lysate preparation, or immunofluorescence.

NF-κB p65 = experiment: NF-κB activation by immunofluorescence of p65 subunit in rat RECs; assay type: cell-based; details: IL-1β or TNFα 10 ng/ml, 30 minutes after treatment
Description: as §3
Detection of NF-κB activation by immunofluorescence of p65 subunit. 30 min following cytokine treatment, cells were fixed with 4% paraformaldehyde for 20 min. After blocking with 10% normal donkey serum (NDS) in PBS for 1 hour at room temperature, cells were incubated with anti-p65 antibody (Santa Cruz) at 4° C. overnight. Cells were incubated in Alexa fluor-conjugated secondary antibody (1:400) in 3% NDS. Nuclei of the cells were labeled with Hoechst nuclear dye (1:500). Subsequently, the cells were observed under an Axioplan2 fluorescent microscope (Zeiss).

[3] = tested on: human retinal endothelial cells (HRECs); experiment: Transendothelial electrical resistance (TEER) assay in HRECs; assay type: cell-based
Description: Transendothelial electrical resistance assay: ECs are grown as a monolayer on small gold electrodes. The transendothelial electrical resistance, which reflects endothelial barrier function and permeability, is measured using the Electric Cell-Substrate Impedance Sensor (ECIS) system.
Transendothelial electrical resistance (TEER) assay. HRECs were plated and grew as a monolayer on fibronectin-coated Electric Cell-Substrate Impedance Sensor (ECIS) electrode arrays (Applied Biophysics). 24 hours after transfection with miR-146a mimics, or negative control oligo duplex with scrambled sequences, the cells were treated with IL-1β (10 ng/ml). TEER was recorded for 20 hours before and 24 hours after addition of IL-1β using the ECIS system (Applied Biophysics) (Qiao et al., 2003, 2006; Lum et al., 2003, 2001). When Bay11-7082 was used, HRECs was incubated with Bay11-7082 ([…]) (Sigma) for 30 minutes prior to IL-1β treatment.

miRNAs in the vitreous = experiment: miRNA expression profiling (TaqMan rodent miRNA microarray) of the vitreous of STZ-induced diabetic and normal control rats; set-up: species or system rat; details: two weeks after the onset of diabetes, average delta Ct
Description: Isolation of vitreous RNA from STZ-induced diabetic and normal control rats: 2 weeks after STZ-induced diabetes, 3 diabetic and 3 normal control rats were sacrificed and their eyeballs harvested. In cold PBS, the eyeballs were dissected to collect the vitreous bodies, the retinas and the lens, total RNA was prepared using the mirVana miRNA isolation kit (Ambion). The yield of total RNA from vitreous body was ˜764 ng and 1125 ng total RNA/vitreous of control and diabetic rats, respectively. […]
miRNA microarray assays and data analyses. […] Three independent sets of miRNA profiling were performed for each experimental condition Amplification data were created by the SDS2.3 program (Applied Biosystems) and further analyzed using RQ Manager software (Applied Biosystems) and StatMiner v. […] There were three replicate assays for each miRNA on the array. miRNAs with Ct<40 in at least two out of the three replicates were accepted as “detected”. […] Normalized expression level of each miRNA was calculated as DCt or ΔCt=Ct(miRNA)-Ct(snRNA U6). The average DCt from three microarray assays was calculated as the relative expression level of each miRNA. The differential expression of each miRNA from samples of diabetic rats and normal controls was calculated as: DDCt or Δ(ΔCt)=Ave DCt (diabetic)—Ave DCt (control). Fold of change was calculated as 2^−Δ(ΔCt). […]

HRECs = experiment: Leukocyte adhesion to HRECs; assay type: cell-based, human; details: scrambled control-treated HRECs, thrombin treatment
Description: Leukocyte adhesion to HRECs. Leukocyte adhesion assays were performed (Huang et al., 2007; O'Donnell, 2011) with minor modifications. Briefly, blood from healthy human volunteers was collected according to a approved IRB protocol to isolate leukocytes. Leukocytes were labeled with 5 μM Calcein/acetomethoxy (AM) (Invitrogen). HRECs were transfected with miR-146a mimics or negative control oligo duplex with scrambled sequences for 48 hours before thrombin treatment (5 U/ml). Eight hours after thrombin treatment, 10^5 calcein-labeled leukocytes were added onto the HREC monolayer and incubated for 2 hours at 37 C. Subsequently, the cells were gently rinsed with PBS to wash off leukocytes unattached to HRECs; the number of Calcein-AM labeled neutrophils attached to HRECs were counted by fluorescence microscopy. In addition, the fluorescence from the adherent leukocytes on HRECs was measured with a Cytofluor plate reader (PreSeptive Biosystems).

NF-κB activation = experiment: Thrombin-induced NF-κB downstream genes (ICAM-1, VCAM-1, MCP1) by qRT-PCR in HRECs; assay type: cell-based, human; details: thrombin treatment
Description: Thrombin-dependent NF-κB activation is mediated by the CARD10-Bc110-MALT1 signalosome. If miR-146 targets CARD10, one of the key components of the signalosome of the GPCR-mediated NF-κB activation pathway, miR-146 should have an inhibitory effect on GPCR-mediated NF-κB activation in HRECs. HRECs were transfected with miR-146a mimic or negative control oligos with scrambled sequences; 24 hour after the transfection, the cells were treated with thrombin.
To determine whether miR-146's inhibition on thrombin-mediated NF-κB activation is mediated by its repression on CARD10, HRECs were transfected with human CARD10-expressing constructs (Genecopoeia) before miR-146a mimic transfection and thrombin treatment.
as §1
miR-146a mimic, anti-miR-146a and plasmid transfection. […]
as §2, with “Two tailed t test was used to determine significance of differences.” left out

[4] = Bay11-7082 3 μM for 30 minutes prior to thrombin
[5] = HRECs treated with scrambled oligo

`Cc1ccc(S(=O)(=O)/C=C/C#N)cc1` [Bay11-7082] was tested, and the “inhibition of thrombin-induced miR-146b upregulation” value (NF-κB [1]; [4]) was “at least 33%”, the “thrombin-induced upregulation of miR-146a” value (NF-κB [1]; [4]) was “completely blocked” and the “decrease of IL-1β-induced upregulation of miR-146a” value (NF-κB [2]; rat RECs, IL-1β 10 ng/ml, simultaneous Bay11-7082) was about 81%. The “TNF-α-induced upregulation of miR-146a” value (NF-κB [2]; rat RECs, TNF-α 10 ng/ml, simultaneous Bay11-7082) was “completely blocked”, the “NF-κB activation (nuclear translocation of p65)” value (“NF-κB activation” for short) (NF-κB p65) was “failed to activate NF-κB” and the “IL-1β-induced decrease of TEER” value ([3]; IL-1β 10 ng/ml) was “prevented”.
In the case of “IL-1β: proinflammatory cytokine used at 10 ng/ml to activate NF-κB”, the miR-146a expression (NF-κB [2]) is reported as “significantly upregulated”, the “NF-κB activation” value (NF-κB p65) is reported as “activated NF-κb” and the TEER ([3]; IL-1β treatment) is reported as “significant decrease”.
With TNF-α the miR-146a expression (NF-κB [2]) was “significantly upregulated” and the “NF-κB activation” value (NF-κB p65) was “activated NF-κb”.
In the case of “mmu-miR-30c (UGUAAACAUCCUACACUCUCAGC; chemistry not fully specified)”, the “AVE DCt (STZ)” value (miRNAs in the vitreous) is reported as 2.37.
With thrombin the “upregulation of miR-146a” value (NF-κB [1]; thrombin treatment) was 122%, the “upregulation of miR-146b” value (NF-κB [1]; thrombin treatment) was 92% and the leukocyte adhesion (HRECs) was “significantly increased”. For the same compound, the “induction of ICAM-1” value (NF-κB activation; [5]) was about 17 fold, the “induction of VCAM-1” value (NF-κB activation; [5]) was about 95 fold and the “NF-κB downstream genes ICAM1, MCP1 and VCAM1” value (NF-κB activation; HRECs) was “significantly upregulated”.
